Series [1] relates to Human colorectal carcinoma cell line (HCT116). The series can be described thus: Cytotoxicity test / growth inhibition, HCT116. The series is classed as cell-based. The conditions noted are these: HCT-116, HCT116, 48 hours, cell counting. The method, then: (§1) Cells were purchased from American Type Culture Collection (ATCC, Manassas, Va., USA). The LNCaP (ATCC® CRL-1740™), A549 (ATCC® CCL-185™), MDA-MB-231 (ATCC® CRM-HTB-26™), 22Rv1 (ATCC® CRL-2505™), HCT-116 (ATCC® CCL-247™) and PC3 (ATCC® CRL-1435™) cells were maintained in Roswell Park Memorial Institute 1640 medium (RPMI; Euroclone, ECB9006L) supplemented with 10% fetal bovine serum (Euroclone; ECS0180L), 2 mM L-glutamine, 100 units/mL penicillin and […] streptomycin at 37° C. in an atmosphere of 5% CO2/air. DU145 (ATCC® HTB-81™), and DAOY (ATCC® HTB-186™) cells were maintained in Eagle's minimal essential medium (EMEM; Euro-clone, ECM0445L) supplemented with 10% fetal bovine serum (Euroclone; ECS0180L), 2 mM L-glutamine, 100 units/ml penicillin and […] streptomycin at 37° C. in an atmosphere of 5% CO2/air. SH-SY5Y (ATCC® CRL-2266™), DBRTG (ATCC® CRL-2020™), HeLa (ATCC® CCL-2™), HN6 cells (kindly provided by Dr Silvio Gutkind, UCSD Medical Center, Moores Cancer Center USA, Chen J. J et al, Oncotarget 2013, 4, 206-217)), U2OS (ATCC® HTB-96™), RD18 cells (kindly provided by Dr P. Boccuni Memorial Sloan-Kettering Cancer Center, New York, USA Vella S. et al. Clin Epigenetics. […]
(§2) Cell lines were seeded at appropriate densities in 2 mL growth medium in 6-wells culture plates 24 hours before the treatment with the inhibitor compounds. […] Cells were incubated 48 hours with drugs and, then, cell viability was evaluated.
(§3) Cells were detached from each well of the 6-wells plates with 300 μL of Trypsin and suspended in culture medium to a final volume of 1 mL. Cell viability was then assessed through cell counting. Cells were diluted in 1:50 ratio of an isotonic buffered diluent, Isoton (Backman Coulter), following the manufacturer's instructions, and counted using an automated cell counter (Z2 series Coulter Counter, Beckman Coulter). […]

For series [2], the system named is Human head and neck squamous carcinoma cell line (HN6). Kind of series: Cytotoxicity test / growth inhibition, HN6. The series is classed as cell-based. The conditions noted are these: HN6, 48 hours, cell counting. The method, then: (§4) Cells were purchased from American Type Culture Collection (ATCC, Manassas, Va., USA). The LNCaP (ATCC® CRL-1740™), A549 (ATCC® CCL-185™), MDA-MB-231 (ATCC® CRM-HTB-26™), 22Rv1 (ATCC® CRL-2505™), HCT-116 (ATCC® CCL-247™) and PC3 (ATCC® CRL-1435™) cells were maintained in Roswell Park Memorial Institute 1640 medium (RPMI; Euroclone, ECB9006L) supplemented with 10% fetal bovine serum (Euroclone; ECS0180L), 2 mM L-glutamine, 100 units/mL penicillin and […] streptomycin at 37° C. in an atmosphere of 5% CO2/air. DU145 (ATCC® HTB-81™), and DAOY (ATCC® HTB-186™) cells were maintained in Eagle's minimal essential medium (EMEM; Euro-clone, ECM0445L) supplemented with 10% fetal bovine serum (Euroclone; ECS0180L), 2 mM L-glutamine, 100 units/ml penicillin and […] streptomycin at 37° C. in an atmosphere of 5% CO2/air. SH-SY5Y (ATCC® CRL-2266™), DBRTG (ATCC® CRL-2020™), HeLa (ATCC® CCL-2™), HN6 cells (kindly provided by Dr Silvio Gutkind, UCSD Medical Center, Moores Cancer Center USA, Chen J. J et al, Oncotarget 2013, 4, 206-217)), U2OS (ATCC® HTB-96™), RD18 cells (kindly provided by Dr P. Boccuni Memorial Sloan-Kettering Cancer Center, New York, USA Vella S. et al. Clin Epigenetics. 2015 6; 7-82), cells were maintained in Dulbecco's modified Eagle's medium (DMEM; Euroclone, ECB7501L) supplemented with 10% fetal bovine serum (Euroclone; ECS0180L), 2 mM L-glutamine, 100 units/ml penicillin and […] streptomycin at 37° C. in an atmosphere of 5% CO2/air.
(§5) Cell lines were seeded at appropriate densities in 2 mL growth medium in 6-wells culture plates 24 hours before the treatment with the inhibitor compounds. After 24 h the culture medium was removed and fresh medium containing increasing concentrations of chemical compounds was added to cells. The fixed final concentrations were: 0.1 μM, 1 μM, 10 μM, 100 μM. DMSO was the vehicle used for dilution of the compounds and its final concentration on cells was less than 0.2%. Medium-only containing wells were included as controls. Cells were incubated 48 hours with drugs and, then, cell viability was evaluated.
(§6) Cells were detached from each well of the 6-wells plates with 300 μL of Trypsin and suspended in culture medium to a final volume of 1 mL. Cell viability was then assessed through cell counting. Cells were diluted in 1:50 ratio of an isotonic buffered diluent, Isoton (Backman Coulter), following the manufacturer's instructions, and counted using an automated cell counter (Z2 series Coulter Counter, Beckman Coulter). Each cell count was performed in three replicates. The values corresponding to the relative survival of cells in presence of each chemical compound at single concentrations were normalized to the untreated controls. Then, the half maximal inhibitory concentration (IC50) value, which represent the drug concentration that is required to induce a 50% growth inhibition in vitro, was calculated with GraphPad Prism 6.0 software using the best fitting sigmoid curve.

Series [3] concerns Human adenocarcinomic alveolar basal epithelial cell line (A549). The series can be described thus: Cytotoxicity test / growth inhibition, A549. The series is classed as cell-based. The conditions noted are these: A549, 48 hours, cell counting. The method, then:
as §4, §5, §6

Series [4] has as its system Human breast adenocarcinoma cell line (MDA-MB-231). The series can be described thus: Cytotoxicity test / growth inhibition, MDA-MB-231. The series is classed as cell-based. The conditions noted are these: MDA-MB-231, 48 hours, cell counting. The method, then:
as §4, §5, §6

The nature of series [5]: Water Solubility Assay. The series is classed as physicochemical. The method, then: Water Solubility Assay. Each solid compound (1 mg) was added to 1 mL of water. The samples were shaked in a shaker bath at room temperature for 24-36 h. The suspensions were filtered through a 0.45 μm nylon filter (Acrodisc), and the solubilized compound determined by LC-MS-MS assay. For each compound the determination was performed in triplicate.
(§7) For the quantification was used an LC-MS system consisted of a Varian apparatus (Varian Inc) including a vacuum solvent degassing unit, two pumps (212-LC), a Triple Quadrupole MSD (Mod. 320-LC) mass spectrometer with ES interface and Varian MS Workstation System Control Vers. 6.9 software. Chromatographic separation was obtained using a Pursuit C18 column (50×2.0 mm) (Varian) with 3 μm particle size and gradient elution: eluent A being ACN and eluent B consisting of water. […] The flow rate was 0.2 mL min^−1 and injection volume was 5 μL. The instrument operated in positive mode and parameters were: detector 1850 V, drying gas pressure 25.0 psi, desolvation temperature 300.0° C., nebulizing gas 40.0 psi, needle 5000 V and shield 600 V. Nitrogen was used as nebulizer gas and drying gas. Collision induced dissociation was performed using Argon as the collision gas at a pressure of 1.8 mTorr in the collision cell. Microsomal Stability Assay. […] The reaction was stopped by cooling on ice and adding 1.0 mL of acetonitrile. The reaction mixtures were then centrifuged, and the parent drug and metabolites were subsequently determined by LC-UV-MS. Chromatographic analysis was performed with an Agilent 1100 LC/MSD VL system (G1946C) (Agilent Technologies, Palo Alto, Calif.) constituted by a vacuum solvent degassing unit, a binary high-pressure gradient pump, an 1100 series UV detector, and an 1100 MSD model VL benchtop mass spectrometer.

Series [6] can be described thus: Parallel Artificial Membrane Permeability Assay (PAMPA), GI. The note with it: GI (intestinal) PAMPA, value in brackets. The series is classed as in vitro ADME. The method, then: Parallel Artificial Membrane Permeability Assay (PAMPA). Donor solution (0.5 mM) was prepared by diluting 1 mM dimethylsulfoxide (DMSO) compound stock solution using phosphate buffer (pH 7.4, 0.025 M). Filters were coated with 5 μL of a 1% (w/v) dodecane solution of phosphatidylcholine prepared from CHCl3 solution 10% w/v, for intestinal permeability. Donor solution (150 μL) was added to each well of the filter plate. To each well of the acceptor plate were added 300 μL of solution (50% DMSO in phosphate buffer). All compounds were tested in three different plates on different days. The sandwich was incubated for 5 h at room temperature under gentle shaking. After the incubation time, the plates were separated, and samples were taken from both receiver and donor sides and analyzed using LC with UV detection at 280 nm.
LC analysis were performed with a Varian Prostar HPLC system (Varian Analytical Instruments, USA) equipped with a binary pump with a manual injection valve and model Prostar 325 UV-VIS Detector. Chromatographic separations were conducted using a Polaris C18-A column (150-4.6 mm, 5 μm particle size) at a flow rate of 0.8 mL min^−1 with a mobile phase composed of 60% ACN/40% H2O.
Permeability (Papp) for PAMPA was calculated according to the following equation, obtained from Wohnsland and Faller and Sugano et al. equation with some modification in order to obtain permeability values in cm s^−1,
where VA is the volume in the acceptor well, VD is the volume in the donor well (cm^3), A is the “effective area” of the membrane (cm^2), t is the incubation time (s) and r the ratio between drug concentration in the acceptor and equilibrium concentration of the drug in the total volume (VD+VA). Drug concentration is estimated by using the peak area integration.
Membrane retentions (%) were calculated according to the following equation: […]
where r is the ratio between drug concentration in the acceptor and equilibrium concentration, D, A, and Eq represented drug concentration in the donor, acceptor and equilibrium solution, respectively.

The nature of series [7]: Microsomal Stability Assay (HLM). The note with it: human liver microsomes, 37° C., 60 min, NADPH-generating system; percentage of not metabolized compound. The series is classed as in vitro ADME.
Excerpt: as §7
Chromatographic separation was obtained using a Varian Polaris C18-A column (150-4.6 mm, 5 μm particle size) and gradient elution: eluent A being ACN and eluent B consisting of water. […] The flow rate was 0.8 mL min^−1 and injection volume was 20 μL.
The Agilent 1100 series mass spectra detection (MSD) single-quadrupole instrument was equipped with the orthogonal spray API-ES (Agilent Technologies, Palo Alto, Calif.). Nitrogen was used as nebulizing and drying gas. The pressure of the nebulizing gas, the flow of the drying gas, the capillary voltage, the fragmentor voltage, and the vaporization temperature were set at 40 psi, 9 L/min, 3000 V, 70 V, and 350° C., respectively. UV detection was monitored at 280 nm. The LC-ESI-MS determination was performed by operating the MSD in the positive ion mode. Spectra were acquired over the scan range m/z 100-1500 using a step size of 0.1 u. The percentage of not metabolized compound was calculated by comparison with reference solutions.

In series [8] the test system is Human Prostate cell line derived from brain metastasis (DU-145). The series can be described thus: Cytotoxicity test / growth inhibition, DU-145. The note with it: DU-145, 48 hours, cell counting. The series is classed as cell-based. The method, then:
as §4, §5
as §3, with “Coulter). Each cell count was performed in three replicates. The values corresponding to the relative survival of cells in presence of each chemical compound at single concentrations were normalized to the untreated controls.” for “Coulter).”

Series [9] deals with Human Prostate cancer cell line (PC3). The series can be described thus: Cytotoxicity test / growth inhibition, PC3. The series is classed as cell-based. The conditions noted are these: PC3, 48 hours, cell counting. The method, then:
as §1, §2, §3

Series [10] deals with T1, Human recombinant DDX3 (DDX3 wt helicase) (Homo sapiens, UniProt O00571).
T1 construct: made in house
The series can be described thus: Helicase assay (anti-enzymatic activity against the DDX3 helicase). The series is classed as biochemical. The note with it: DDX3 helicase activity, dsRNA unwinding; n.a = Compound not active; read-out: ID50 (the source's name). The method, then:
The helicase activity of DDX3 wt was monitored by measuring the conversion of a double stranded (ds) RNA (labelled at the 5′-end of one strand with a 6-FAM fluorescent) into single stranded (ss) nucleic acid. A final concentration of 25 nM RNA substrate was used in the experiments, unless otherwise stated. Reactions were performed in 50 mM TrisHCl pH 7.5, 1 mM DTT, 0.2 mg/ml BSA, 5% glycerol and 100 μM ATP, 10 mM MgCl2 at 37° C. degrees for 10′ and stopped by adding EDTA 50 mM pH 8. Products were separated through non-denaturating 8% PAGE at 5 W for 4 hours in TBE buffer at 4° C. Substrates and products were quantified by laser scanning densitometry (Thyphoon-TRIO, GE Healthcare).
Human recombinant DDX3 was cloned, expressed and purified as described (Franca et al. Proteins 2007, 67, 1128-37).

Series [11] concerns Human osteosarcoma cell line (U2OS). Kind of series: Cytotoxicity test / growth inhibition, U2OS. The series is classed as cell-based. The note with it: 48 hours, cell counting. The method, then: as §4, §5, §6

T1 sequence (O00571 whole entry): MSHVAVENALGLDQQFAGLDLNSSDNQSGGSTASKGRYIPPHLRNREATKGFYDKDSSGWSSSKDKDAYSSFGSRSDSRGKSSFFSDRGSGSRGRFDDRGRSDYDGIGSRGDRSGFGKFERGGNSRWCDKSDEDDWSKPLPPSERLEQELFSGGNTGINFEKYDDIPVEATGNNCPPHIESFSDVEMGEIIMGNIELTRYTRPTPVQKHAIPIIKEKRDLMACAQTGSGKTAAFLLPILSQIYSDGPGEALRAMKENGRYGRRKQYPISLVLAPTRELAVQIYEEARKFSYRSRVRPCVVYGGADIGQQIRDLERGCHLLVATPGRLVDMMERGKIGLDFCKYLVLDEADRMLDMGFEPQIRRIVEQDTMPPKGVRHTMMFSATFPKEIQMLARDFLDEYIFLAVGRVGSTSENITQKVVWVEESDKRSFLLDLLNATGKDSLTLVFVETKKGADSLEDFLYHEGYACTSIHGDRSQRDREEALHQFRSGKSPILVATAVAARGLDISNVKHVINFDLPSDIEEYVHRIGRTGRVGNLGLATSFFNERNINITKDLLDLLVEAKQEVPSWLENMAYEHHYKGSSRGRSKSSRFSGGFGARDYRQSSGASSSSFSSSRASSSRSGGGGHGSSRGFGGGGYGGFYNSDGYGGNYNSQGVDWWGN

In the case of `CCCCc1nnc(-c2ccc(NC(=O)Nc3ccccc3C(F)(F)F)cc2)o1` [Compound 112, 1-(4-(5-butyl-1,3,4-oxadiazol-2-yl)phenyl)-3-(2-(trifluoromethyl)phenyl)urea], the IC50 in [1] was 38.2 µM; in [2], 75.7 µM; in series [3], 57.1 µM; in series [4], 33.6 µM.
As to `CCCCn1nnc(-c2ccc(NC(=O)Nc3ccccc3C)cc2)n1` [Compound 49, 1-(4-(2-butyl-2H-tetrazol-5-yl)phenyl)-3-(o-tolyl)urea], in series [5] (from aqueous solubility), the LogS is listed as under −8.5. The “Aq. Solub.” value in series [5] (water, room temperature, 24-36 h) was under 0.001 µg/mL. For the same compound, the “PAMPA GI (RM %) membrane retention” value in series [6] is listed as 24.8%. This compound registered a Sability % in series [7] of 95.6%.
Take `CCCCc1nnc(-c2ccc(NC(=O)Nc3ccccc3C(F)(F)F)cc2)[nH]1` [Compound 119, 1-(4-(5-butyl-4H-1,2,4-triazol-3-yl)phenyl)-3-(2-(trifluoromethyl)phenyl)urea]: the IC50 in [8] stood at 12.9 µM; in series [9], 46.3 µM; in [10], 1 µM; in [3], 14 µM.
As to `CCCCc1nc(-c2ccc(NC(=O)Nc3ccccc3C(F)(F)F)cc2)no1` [Compound 106, 1-(4-(5-butyl-1,2,4-oxadiazol-3-yl)phenyl)-3-(2-(trifluoromethyl)phenyl)urea], the IC50 in [1] is 36.8 µM; in [2] it was 18.2 µM; in [3], 32.6 µM; in series [11], 35.4 µM.

The values are drawn from US11000512B2, “Use of DDX3 inhibitors as antiproliferative agents” (AZIENDA OSPEDALIERA UNIVERSITARIA SENESE, priority 2016, dated 2021).
